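Following 48 hours of exposure in 96-well plates, responses at five concentrations were used to interpolate endpoints linearly. GI50 marks 50% less growth.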 The source made the active and inactive calls. Cut-off read from the data, not from the text of the source: active = GI50 up to about 1.1 µM and inactive = higher.
Experiments:
Test in all cases: growth of human tumour cells (NCI), 48 h
[1] = tested on: U-251
[2] = tested on: HCC 2998
[3] = tested on: SF-268
[4] = tested on: BT-549
[5] = tested on: K562
[6] = tested on: SK-MEL-5
[7] = tested on: UACC-257
[8] = tested on: NCI-H226
[9] = tested on: EKVX
[10] = tested on: RPMI-8226
[11] = tested on: SK-MEL-28
[12] = tested on: MDA-MB-435
[13] = tested on: OVCAR-3
[14] = tested on: HCT-15
[15] = tested on: NCI/ADR-RES
[16] = tested on: HT-29
[17] = tested on: 786-0
[18] = tested on: TK-10
[19] = tested on: T47D

Compound	GI50 [1]	GI50 [2]	GI50 [3]	GI50 [4]	GI50 [5]	GI50 [6]	GI50 [7]	GI50 [8]	GI50 [9]	GI50 [10]	GI50 [11]	GI50 [12]	GI50 [13]	GI50 [14] [µM]	GI50 [15]	GI50 [16]	GI50 [17]	GI50 [18]	GI50 [19]
Cc1ccc(Nc2cn(COCc3ccccc3)c(=O)[nH]c2=O)cc1	> 100 µM (inactive)	> 100 µM (inactive)	27.8 µM (inactive)	11.7 µM (inactive)	> 100 µM (inactive)	> 100 µM (inactive)	> 100 µM (inactive)	> 100 µM (inactive)	> 100 µM (inactive)	> 100 µM (inactive)	> 100 µM (inactive)	> 100 µM (inactive)	> 100 µM (inactive)	> 100	> 100 µM (inactive)	> 100 µM (inactive)	43.5 µM (inactive)	–	–
Nn1c(CCCCCCCCc2nnc(COc3ccc(Cl)cc3)n2N)nnc1COc1ccc(Cl)cc1	> 100 µM (inactive)	> 100 µM (inactive)	> 100 µM (inactive)	> 100 µM (inactive)	> 100 µM (inactive)	> 100 µM (inactive)	> 100 µM (inactive)	> 100 µM (inactive)	> 100 µM (inactive)	> 100 µM (inactive)	> 100 µM (inactive)	> 100 µM (inactive)	–	> 100	> 100 µM (inactive)	> 100 µM (inactive)	> 100 µM (inactive)	78 µM (inactive)	–
CCOC(=O)N1CCN(c2ccc3ccc(N)nc3n2)CC1	> 100 µM (inactive)	> 100 µM (inactive)	> 100 µM (inactive)	> 100 µM (inactive)	> 100 µM (inactive)	–	> 100 µM (inactive)	> 100 µM (inactive)	> 100 µM (inactive)	> 100 µM (inactive)	> 100 µM (inactive)	> 100 µM (inactive)	> 100 µM (inactive)	> 100	> 100 µM (inactive)	80.2 µM (inactive)	> 100 µM (inactive)	> 100 µM (inactive)	–
COC(=O)c1c(C)cccc1C1CN=NC12Cc1ccc(C)c(C)c1C2=O (stereo unspecified)	35.2 µM (inactive)	23.5 µM (inactive)	49.4 µM (inactive)	–	18.2 µM (inactive)	–	26.2 µM (inactive)	44.6 µM (inactive)	12.2 µM (inactive)	9.84 µM (inactive)	> 100 µM (inactive)	31.4 µM (inactive)	32.4 µM (inactive)	23.2	15.2 µM (inactive)	25.7 µM (inactive)	51.3 µM (inactive)	> 100 µM (inactive)	3.2 µM (inactive)
N#Cc1c(=O)c2ccccc2n2ccccc12	> 100 µM (inactive)	> 100 µM (inactive)	> 100 µM (inactive)	–	> 100 µM (inactive)	> 100 µM (inactive)	> 100 µM (inactive)	24.9 µM (inactive)	–	> 100 µM (inactive)	> 100 µM (inactive)	> 100 µM (inactive)	–	> 100	> 100 µM (inactive)	> 100 µM (inactive)	> 100 µM (inactive)	> 100 µM (inactive)	> 100 µM (inactive)
Cc1cccc(-c2cc(O)c3cccnc3n2)c1	0.449 µM (active)	1.98 µM (inactive)	59 µM (inactive)	> 100 µM (inactive)	0.0993 µM (active)	0.467 µM (active)	–	4.44 µM (inactive)	2.34 µM (inactive)	0.679 µM (active)	0.406 µM (active)	0.0298 µM (active)	0.301 µM (active)	0.299	0.618 µM (active)	0.264 µM (active)	0.569 µM (active)	–	–
COc1ccc2c3c([nH]c2c1[N+](=O)[O-])C(C)=NCC3	> 100 µM (inactive)	> 100 µM (inactive)	20 µM (inactive)	–	62.7 µM (inactive)	–	> 100 µM (inactive)	51.8 µM (inactive)	> 100 µM (inactive)	39.7 µM (inactive)	> 100 µM (inactive)	–	> 100 µM (inactive)	> 100	–	56.8 µM (inactive)	> 100 µM (inactive)	> 100 µM (inactive)	–
Cc1ccc(-c2c(C#N)c(-c3ccccc3)n(NS(=O)(=O)c3ccc(C)cc3)c(=O)c2C#N)cc1	49.5 µM (inactive)	47.4 µM (inactive)	90.8 µM (inactive)	22.9 µM (inactive)	48 µM (inactive)	19.2 µM (inactive)	> 100 µM (inactive)	74.3 µM (inactive)	89.9 µM (inactive)	8.36 µM (inactive)	52.1 µM (inactive)	61.7 µM (inactive)	–	36.4	96.4 µM (inactive)	69.2 µM (inactive)	59.4 µM (inactive)	55.3 µM (inactive)	–
COC(=O)c1cc2c(cc1CC1Cc3cc4c(cc3C1)CCC4)CCC2	34.9 µM (inactive)	22.6 µM (inactive)	56.9 µM (inactive)	–	25.8 µM (inactive)	52.6 µM (inactive)	25.8 µM (inactive)	> 100 µM (inactive)	52.6 µM (inactive)	21.8 µM (inactive)	19.5 µM (inactive)	42.6 µM (inactive)	38.6 µM (inactive)	59.2	> 100 µM (inactive)	36.3 µM (inactive)	> 100 µM (inactive)	> 100 µM (inactive)	37.5 µM (inactive)
O=C1CCCC2=C1CC1=C(CCCC1=O)N2c1cccc2ccccc12	61 µM (inactive)	> 100 µM (inactive)	45.1 µM (inactive)	26.8 µM (inactive)	44 µM (inactive)	85.3 µM (inactive)	–	> 100 µM (inactive)	> 100 µM (inactive)	> 100 µM (inactive)	> 100 µM (inactive)	–	> 100 µM (inactive)	66.7	> 100 µM (inactive)	> 100 µM (inactive)	57.1 µM (inactive)	> 100 µM (inactive)	–
COC1/C=C\OC2(C)Oc3c(C)c(O)c4c(O)c(c(/C=N\OCCCc5ccccc5)c(O)c4c3C2=O)NC(=O)/C(C)=C\C=C/C(C)C(O)C(C)C(O)C(C)C(OC(C)=O)C1C (stereo unspecified)	4.36 µM (inactive)	11.4 µM (inactive)	4.93 µM (inactive)	–	4.16 µM (inactive)	1.78 µM (inactive)	5.74 µM (inactive)	2.13 µM (inactive)	4.52 µM (inactive)	–	2.06 µM (inactive)	3.25 µM (inactive)	3.07 µM (inactive)	3.16	3.66 µM (inactive)	3.59 µM (inactive)	3.24 µM (inactive)	3.23 µM (inactive)	4.45 µM (inactive)
COC(=O)CCc1ccc2c(c1)CC1(C2)Cc2ccc3c(c2C1)CCC3 (stereo unspecified)	> 100 µM (inactive)	52.4 µM (inactive)	> 100 µM (inactive)	–	38.7 µM (inactive)	34.4 µM (inactive)	> 100 µM (inactive)	> 100 µM (inactive)	> 100 µM (inactive)	31.3 µM (inactive)	> 100 µM (inactive)	38.1 µM (inactive)	> 100 µM (inactive)	59.2	> 100 µM (inactive)	70.3 µM (inactive)	69.8 µM (inactive)	> 100 µM (inactive)	18.8 µM (inactive)
O=C1NN(c2ccccc2)C(=O)C2C3c4ccccc4C(c4ccccc43)C12 (stereo unspecified)	> 100 µM (inactive)	6.64 µM (inactive)	> 100 µM (inactive)	–	43.2 µM (inactive)	> 100 µM (inactive)	27.6 µM (inactive)	> 100 µM (inactive)	> 100 µM (inactive)	> 100 µM (inactive)	> 100 µM (inactive)	> 100 µM (inactive)	> 100 µM (inactive)	89.1	> 100 µM (inactive)	32.7 µM (inactive)	> 100 µM (inactive)	> 100 µM (inactive)	44.4 µM (inactive)
O=S(=O)(c1ccc(/N=N/O)nc1)c1ccc2ccccc2c1	> 100 µM (inactive)	–	> 100 µM (inactive)	> 100 µM (inactive)	75 µM (inactive)	36.8 µM (inactive)	> 100 µM (inactive)	> 100 µM (inactive)	> 100 µM (inactive)	–	> 100 µM (inactive)	–	> 100 µM (inactive)	> 100	> 100 µM (inactive)	65.8 µM (inactive)	> 100 µM (inactive)	94 µM (inactive)	40 µM (inactive)
CCOC(=O)NC(N(C)C(C(C)C)P(=O)(OCC)OCC)(C(F)(F)F)C(F)(F)F (stereo unspecified)	> 100 µM (inactive)	–	> 100 µM (inactive)	–	> 100 µM (inactive)	> 100 µM (inactive)	> 100 µM (inactive)	> 100 µM (inactive)	> 100 µM (inactive)	> 100 µM (inactive)	> 100 µM (inactive)	> 100 µM (inactive)	> 100 µM (inactive)	> 100	> 100 µM (inactive)	> 100 µM (inactive)	> 100 µM (inactive)	> 100 µM (inactive)	> 100 µM (inactive)
Nc1nc(Cl)c2nnn(CC3CCC(CO)C3)c2n1 (stereo unspecified)	> 100 µM (inactive)	> 100 µM (inactive)	> 100 µM (inactive)	–	> 100 µM (inactive)	> 100 µM (inactive)	> 100 µM (inactive)	> 100 µM (inactive)	> 100 µM (inactive)	> 100 µM (inactive)	> 100 µM (inactive)	> 100 µM (inactive)	> 100 µM (inactive)	> 100	> 100 µM (inactive)	–	> 100 µM (inactive)	> 100 µM (inactive)	> 100 µM (inactive)
Cc1nc2ccc([N+](=O)[O-])cc2c(=O)n1C(=S)Nc1cccc(Cl)c1	18.5 µM (inactive)	9.02 µM (inactive)	16.8 µM (inactive)	–	20.7 µM (inactive)	14.1 µM (inactive)	17.3 µM (inactive)	14.9 µM (inactive)	18.7 µM (inactive)	4.06 µM (inactive)	17.6 µM (inactive)	17.7 µM (inactive)	12.3 µM (inactive)	12.9	19.4 µM (inactive)	17.7 µM (inactive)	24.7 µM (inactive)	23.8 µM (inactive)	7.53 µM (inactive)

Reference: ChEMBL document CHEMBL1201862, “PubChem BioAssay data set” (2004)
